# Data as given in patent US20110077212A1, “THERAPEUTIC USES OF SGLT2 INHIBITORS” (Theracos, Inc., priority 2009, published 2011).
# Several values for one entry are separate records, joined by “and”; a condition that tells them apart may be missing. Equal values may be shown once. Where a name gives a salt, the structure may show the parent alone.
# What was measured:
# [1] = system: SD Rats Fed a Pioglitazone (0.03%) Containing Diet; assay: Body weight of SD rats fed a pioglitazone-containing diet for 7 days; format: in vivo, Sprague-Dawley rats; settings: for Body Weight (g) DAY 1: day 1 (first day of pioglitazone 0.03% diet and compound in drinking water), amiloride 1.5 mg/kg; for Body Weight (g) DAY 1 / Body Weight (%) DELTA (percent weight gain) / Body Weight (g) DELTA (weight gain) / Body Weight (g) DAY 7 / Body Weight (%) DAY 7: TEST COMPOUND 4.5 mg/kg; for Body Weight (g) DAY 1 / Body Weight (%) DELTA (percent weight gain) / Body Weight (g) DELTA (weight gain) / Body Weight (g) DAY 7 / Body Weight (%) DAY 1 / Body Weight (%) DAY 7: mean ± SEM; for Body Weight (%) DELTA (percent weight gain): day 7 minus day 1, percent of day 1 value; for Body Weight (%) DELTA (percent weight gain) / Body Weight (g) DELTA (weight gain) / Body Weight (%) DAY 1 / Body Weight (%) DAY 7: pioglitazone 0.03% diet; for Body Weight (%) DELTA (percent weight gain) / Body Weight (g) DELTA (weight gain) / Body Weight (g) DAY 7 / Body Weight (%) DAY 7: amiloride 1.5 mg/kg in drinking water; for Body Weight (g) DELTA (weight gain): day 7 minus day 1; for Body Weight (g) DAY 7: day 7 of pioglitazone 0.03% diet; for Body Weight (%) DAY 1 / Body Weight (%) DAY 7: percent of day 1 value
# Description: (§1) […] On day −5 rats and water bottles were weighed and placed in the cage with ad lib access to standard rodent chow. Body weights were used to assign rats to counter-balanced groups. Daily water consumption was estimated after weighing bottles again on day −1 and used to determine the appropriate drug concentrations to achieve the desired daily doses. On day 1, rats were weighed and then received an ad mixed diet (ad lib) containing 0.03% pioglitazone in place of standard chow. Food weight was recorded in order to track consumption over the course of the experiment. At this time, rats were also given drinking water containing compound at the appropriate concentration. Full bottles were pre-weighed and recorded in order to track consumption over the course of the experiment. On day 7, rats, food and water bottles were again weighed and recorded, hematocrits were determined using blood collected by a tail nick. All data are presented as means +/−1 SEM. Statistical analyses were performed using GraphPad Prism statistical software. The mean differences among the treatment groups for all variables were tested for statistical significance using 2-way repeated measures ANOVAs. Additionally, differences were calculated for each animal (day 7−day 1), and resultant means were tested for statistical significance using 1-way ANOVAs.
# [2] = system: SD Rats Fed a Pioglitazone (0.03%) Containing Diet; assay: Plasma volume (hematocrit) of SD rats fed a pioglitazone-containing diet for 7 days; format: in vivo, Sprague-Dawley rats; settings: for Plasma expansion versus vehicle treated rats (in words): 7 days pioglitazone diet, compound in drinking water; for Plasma Volume % DAY 1: day 1 (first day of pioglitazone 0.03% diet and compound in drinking water), amiloride 1.5 mg/kg; for Plasma Volume % DAY 1 / Plasma Volume % DELTA / Plasma Volume % DAY 7: TEST COMPOUND 4.5 mg/kg, mean ± SEM; for Plasma Volume % DELTA: day 7 minus day 1, pioglitazone 0.03% diet; for Plasma Volume % DELTA / Plasma Volume % DAY 7: amiloride 1.5 mg/kg in drinking water; for Plasma Volume % DAY 7: day 7 of pioglitazone 0.03% diet
# Description: as §1, with “On day 1 and day 7, rats were warmed using a heating pad and lightly anesthetized using isoflurane (Butler Animal Health Services; Chicago, Ill.). Using a sterile scalpel blade, a small tail nick was made on the distal one third of the tail. Blood was collected in a heparinized microcapillary tube (FisherBrand; Pittsburg, Pa.), sealed with putty at one end and stored on ice until centrifugation (5000 rpm, 5 min). Plasma volume was determined using a Critocaps microhematocrit capillary tube reader card (Leica: Lot #7426). On day 7, rats,” for “On day 7, rats,”
# [3] = one week, pioglitazone 20-25 mg/kg/day in diet
"Plasma expansion induced by pioglitazone (in words) [2, 3]",Compound,"Increase in body weight induced by pioglitazone [1, 3]",Body Weight (g) DAY 1 [1],Body Weight (%) DELTA (percent weight gain) [1],Body Weight (g) DELTA (weight gain) [1],Body Weight (g) DAY 7 [1],Body Weight (%) DAY 1 [1],Body Weight (%) DAY 7 [1],Plasma expansion versus vehicle treated rats (in words) [2],Plasma Volume % DAY 1 [2] [%],Plasma Volume % DELTA [2] [%],Plasma Volume % DAY 7 [2] [%]
significant plasma expansion,CCc1ccc(CCOc2ccc(CC3SC(=O)NC3=O)cc2)nc1 (stereo not shown) [pioglitazone],approximately 45 g,–,–,–,–,–,–,–,–,–,–
–,"OC[C@H]1O[C@@H](c2ccc(Cl)c(Cc3ccc(OCCOC4CC4)cc3)c2)[C@H](O)[C@@H](O)[C@@H]1O [TEST COMPOUND, (2S,3R,4R,5S,6R)-2-(4-chloro-3-(4-(2-cyclopropoxyethoxy)benzyl)phenyl)-6-(hydroxymethyl)tetrahydro-2H-pyran-3,4,5-triol]",–,371.7 ± 5.0 ^ g,4.8% and 4.8 ± 1.3 %,17.4 g and 17.5 ± 4.7 g,389.2 ± 5.7 ^†† g,100 ± 0 ^ %,104.8 ± 1.3 ^†† %,significantly less plasma expansion than vehicle treated rats,52.9 ± 0.5,1.8 ± 0.8,54.7 ± 0.6
–,"N=C(N)NC(=O)c1nc(Cl)c(N)nc1N [Amiloride, Amiloride HCl Hydrate]",–,370.0 ± 6.0 g,10.8 ± 0.7%,40.0 ± 2.8 g,410.0 ± 7.7 g,100 ± 0%,110.8 ± 0.7 %,significance for the observed trend toward reversal of PPAR-γ induced expansion was not achieved,52.7 ± 0.9,3.9 ± 0.7,56.6 ± 0.4
